Results published in patent US11034650B2, “Compounds useful for treating a Mannheimia haemolytica or Histophilus somni infection” (Intervet Inc., priority 2016, dated 2021).
Values after ≈ are worked out from the molar mass of the structure shown.

What was measured:
Format in all cases: cell-based
[1] = tested on: Mannheimia haemolytica MH 12587 (1071, BRD field isolate, macrolide-resistance: erm+, E+); assay: MIC, broth-microdilution (CLSI VET01-A4), strain MH 12587; conditions: Mannheimia haemolytica strain MH 12587, broth-microdilution; unit assumed
Method in brief: (§1)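 Growth inhibition is scored visually on a doubling dilution series. The reported MIC corresponds to the lowest concentration free of turbidity, with results assessed under CLSI VET01-S3.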

[2] = tested on: Mannheimia haemolytica MH 6357 (M7/2, reference strain, cattle infection strain); assay: MIC, broth-microdilution (CLSI VET01-A4), strain MH 6357; conditions: Mannheimia haemolytica strain MH 6357, broth-microdilution; unit assumed
Method in brief: as §1

[3] = tested on: Pasteurella multocida PM 10775 (080130003051, BRD field isolate); assay: MIC, broth-microdilution (CLSI VET01-A4), strain PM 10775; conditions: Pasteurella multocida strain PM 10775, broth-microdilution; unit assumed
Method in brief: as §1

[4] = tested on: Mannheimia haemolytica MH 13093 (XB0472-6014.1, BRD field isolate); assay: MIC, broth-microdilution (CLSI VET01-A4), strain MH 13093; conditions: Mannheimia haemolytica strain MH 13093, broth-microdilution; unit assumed
Method in brief: as §1

[5] = tested on: Mannheimia haemolytica MH 10720 (154, BRD field isolate); assay: MIC, broth-microdilution (CLSI VET01-A4), strain MH 10720; conditions: Mannheimia haemolytica strain MH 10720, broth-microdilution; unit assumed
Method in brief: as §1

[6] = tested on: Pasteurella multocida PM 12080 (IV102277-0093, BRD field isolate); assay: MIC, broth-microdilution (CLSI VET01-A4), strain PM 12080; conditions: Pasteurella multocida strain PM 12080, broth-microdilution; unit assumed
Method in brief: as §1

[7] = tested on: Pasteurella multocida PM 6267 (P 2225 (L386), reference strain, mouse infection strain); assay: MIC, broth-microdilution (CLSI VET01-A4), strain PM 6267; conditions: Pasteurella multocida strain PM 6267, broth-microdilution; unit assumed
Method in brief: as §1

[8] = tested on: Mannheimia haemolytica MH 13065 (XB0446-6003.9, BRD field isolate); assay: MIC, broth-microdilution (CLSI VET01-A4), strain MH 13065; conditions: Mannheimia haemolytica strain MH 13065, broth-microdilution; unit assumed
Method in brief: as §1

[9] = tested on: Mannheimia haemolytica MH 6374 (ATCC 33396, reference strain); assay: MIC, broth-microdilution (CLSI VET01-A4), strain MH 6374; conditions: Mannheimia haemolytica strain MH 6374, broth-microdilution; unit assumed
Method in brief: as §1

[10] = tested on: Pasteurella multocida PM 6391 (ATCC 43137, reference strain); assay: MIC, broth-microdilution (CLSI VET01-A4), strain PM 6391; conditions: Pasteurella multocida strain PM 6391, broth-microdilution; unit assumed
Method in brief: as §1

| Structure (SMILES) | MIC MH 12587 [1] | MIC MH 6357 [2] | MIC PM 10775 [3] | MIC MH 13093 [4] | MIC MH 10720 [5] | MIC PM 12080 [6] | MIC PM 6267 [7] | MIC MH 13065 [8] | MIC MH 6374 [9] | MIC PM 6391 [10] |
| --- | --- | --- | --- | --- | --- | --- | --- | --- | --- | --- |
| N#CCNCc1ccc(C#Cc2ccc(C(=O)N[C@@H](CO)C(=O)NO)cc2)cc1 [Compound 216] | 3.1 µg/mL (≈ 7.9 µM) | 1.6 µg/mL (≈ 4.08 µM) | ≤ 0.1 µg/mL | 3.1 µg/mL (≈ 7.9 µM) | 0.8 µg/mL (≈ 2.04 µM) | 0.2 µg/mL (≈ 0.51 µM) | ≤ 0.1 µg/mL | 1.6 µg/mL (≈ 4.08 µM) | 3.1 µg/mL (≈ 7.9 µM) | 0.2 µg/mL (≈ 0.51 µM) |
| CC(C)(O)[C@H](NC(=O)c1ccc(C#Cc2ccc(CNC3CC3)cc2)cc1)C(=O)NO [Compound 219] | 1.6 µg/mL (≈ 3.8 µM) | 1.6 µg/mL (≈ 3.8 µM) | ≤ 0.1 µg/mL | 0.8 µg/mL (≈ 1.9 µM) | ≤ 0.1 µg/mL | ≤ 0.1 µg/mL | ≤ 0.1 µg/mL | 0.4 µg/mL (≈ 0.949 µM) | 0.4 µg/mL (≈ 0.949 µM) | ≤ 0.1 µg/mL |
| C=CCNCc1ccc(C#Cc2ccc(C(=O)N[C@H](C(=O)NO)C(C)(C)O)cc2)cc1 [Compound 220] | 3.1 µg/mL (≈ 7.35 µM) | 3.1 µg/mL (≈ 7.35 µM) | ≤ 0.1 µg/mL | 1.6 µg/mL (≈ 3.8 µM) | ≤ 0.1 µg/mL | 0.4 µg/mL (≈ 0.949 µM) | ≤ 0.1 µg/mL | 0.8 µg/mL (≈ 1.9 µM) | 0.8 µg/mL (≈ 1.9 µM) | 0.4 µg/mL (≈ 0.949 µM) |
| COCCNCc1ccc(C#Cc2ccc(C(=O)N[C@H](C(=O)NO)C(C)(C)O)cc2)cc1 [Compound 221] | 3.1 µg/mL (≈ 7.05 µM) | 0.8 µg/mL (≈ 1.82 µM) | ≤ 0.1 µg/mL | 1.6 µg/mL (≈ 3.64 µM) | ≤ 0.1 µg/mL | 0.4 µg/mL (≈ 0.91 µM) | ≤ 0.1 µg/mL | 1.6 µg/mL (≈ 3.64 µM) | 0.8 µg/mL (≈ 1.82 µM) | 0.4 µg/mL (≈ 0.91 µM) |
| CC(C)(O)[C@H](NC(=O)c1ccc(C#Cc2ccc(CN3CCOCC3)cc2)cc1)C(=O)NO [Compound 222] | 1.6 µg/mL (≈ 3.54 µM) | 0.8 µg/mL (≈ 1.77 µM) | ≤ 0.1 µg/mL | 1.6 µg/mL (≈ 3.54 µM) | 0.2 µg/mL (≈ 0.443 µM) | 0.2 µg/mL (≈ 0.443 µM) | ≤ 0.1 µg/mL | 1.6 µg/mL (≈ 3.54 µM) | 1.6 µg/mL (≈ 3.54 µM) | ≤ 0.1 µg/mL |
| CC(C)(O)[C@H](NC(=O)c1ccc(C#Cc2ccc(CNCc3ccccc3)cc2)cc1)C(=O)NO [Compound 223] | 0.8 µg/mL (≈ 1.7 µM) | 0.8 µg/mL (≈ 1.7 µM) | ≤ 0.1 µg/mL | 0.4 µg/mL (≈ 0.848 µM) | ≤ 0.1 µg/mL | ≤ 0.1 µg/mL | ≤ 0.1 µg/mL | 0.4 µg/mL (≈ 0.848 µM) | 0.4 µg/mL (≈ 0.848 µM) | ≤ 0.1 µg/mL |
| COc1ccc(CNCc2ccc(C#Cc3ccc(C(=O)N[C@H](C(=O)NO)C(C)(C)O)cc3)cc2)cc1 [Compound 224] | 1.6 µg/mL (≈ 3.19 µM) | 0.8 µg/mL (≈ 1.59 µM) | ≤ 0.1 µg/mL | 0.8 µg/mL (≈ 1.59 µM) | ≤ 0.1 µg/mL | ≤ 0.1 µg/mL | ≤ 0.1 µg/mL | 0.8 µg/mL (≈ 1.59 µM) | 0.8 µg/mL (≈ 1.59 µM) | 0.4 µg/mL (≈ 0.797 µM) |
| CC(C)(O)[C@H](NC(=O)c1ccc(C#Cc2ccc(CNC3CCC3)cc2)cc1)C(=O)NO [Compound 226] | 12.5 µg/mL (≈ 28.7 µM) | 3.1 µg/mL (≈ 7.12 µM) | ≤ 0.1 µg/mL | 6.3 µg/mL (≈ 14.5 µM) | 0.8 µg/mL (≈ 1.84 µM) | 0.4 µg/mL (≈ 0.918 µM) | ≤ 0.1 µg/mL | 3.1 µg/mL (≈ 7.12 µM) | 3.1 µg/mL (≈ 7.12 µM) | 0.4 µg/mL (≈ 0.918 µM) |
| CC(C)(O)[C@H](NC(=O)c1ccc(C#Cc2ccc(CNC3CCCC3)cc2)cc1)C(=O)NO [Compound 227] | 25 µg/mL (≈ 55.6 µM) | 12.5 µg/mL (≈ 27.8 µM) | 0.2 µg/mL (≈ 0.445 µM) | 12.5 µg/mL (≈ 27.8 µM) | 1.6 µg/mL (≈ 3.56 µM) | 0.8 µg/mL (≈ 1.78 µM) | 0.4 µg/mL (≈ 0.89 µM) | 6.3 µg/mL (≈ 14 µM) | 12.5 µg/mL (≈ 27.8 µM) | 0.8 µg/mL (≈ 1.78 µM) |
